# Values joined by “and” are separate entries in the source; they are usually repeats but may differ in a detail not shown here. Equal entries are not always repeated. Marks after values point to notes of the source that are not given here.
# Columns and labels:
# hCB1 [1] = target: T1, hCB1 (Homo sapiens, UniProt P21554); experiment: Lance Ultra cAMP accumulation assay, CHO cells; format: cell-based; design: expressed in transfected cells; conditions: for normalised cAMP response, concentration-response (Figure2f), replicate values: log[Compound;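 as to all read-outs here: human CB1R stably expressed in CHO cells, ligands co-incubated with forskolin at room temperature, read-out is lowering of forskolin-stimulated cAMP accumulation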
# T1 sequence (P21554 whole entry): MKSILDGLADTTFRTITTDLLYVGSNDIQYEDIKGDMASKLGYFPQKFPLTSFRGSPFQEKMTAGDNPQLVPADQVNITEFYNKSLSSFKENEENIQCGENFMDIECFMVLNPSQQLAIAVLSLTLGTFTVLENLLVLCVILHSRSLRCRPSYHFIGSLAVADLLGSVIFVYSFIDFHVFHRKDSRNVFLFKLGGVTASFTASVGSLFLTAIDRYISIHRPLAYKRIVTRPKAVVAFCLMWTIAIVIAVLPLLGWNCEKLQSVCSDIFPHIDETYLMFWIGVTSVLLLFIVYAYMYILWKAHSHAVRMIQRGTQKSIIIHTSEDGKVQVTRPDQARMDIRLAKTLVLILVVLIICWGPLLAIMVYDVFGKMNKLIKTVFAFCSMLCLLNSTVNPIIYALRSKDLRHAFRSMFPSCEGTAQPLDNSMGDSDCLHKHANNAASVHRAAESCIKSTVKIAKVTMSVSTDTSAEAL
# hCB1 [2] = target: T1, hCB1; experiment: bioSensAll ebBRET signaling profiling, hCB1; format: cell-based; design: host or cells: HEK293SL cells, transient PEI transfection
smiles,measurement,setting,value
COC(=O)[C@@](C)(NC(=O)c1cc(C)n(-c2cccc(C(F)(F)F)c2)n1)c1cccs1 [‘1350],Lance Ultra cAMP pEC50,hCB1 [1],8.8 [8.4 – 9.2]
same,Emax,hCB1 [1]; CHO,77%
same,"agonism, inhibition of forskolin-stimulated cAMP","hCB1 [1]; hCB1-expressing cells, in words",agonists
same,"normalised cAMP response, concentration-response (Figure2f), replicate values",hCB1 [1]; M] -5,-4.858 and 11.635 and 22.5761 and 22.3192 and 16.0513
same,"normalised cAMP response, concentration-response (Figure2f), replicate values",hCB1 [1]; M] -6,0.02957 and 13.0032 and 24.8348 and 23.4809 and 19.7873
same,"normalised cAMP response, concentration-response (Figure2f), replicate values",hCB1 [1]; M] -7,-1.176 and 11.2775 and 31.1162 and 23.9321 and 21.5823
same,"normalised cAMP response, concentration-response (Figure2f), replicate values",hCB1 [1]; M] -8,4.023 and 6.478 and 36.7172 and 38.802 and 36.5532
same,"normalised cAMP response, concentration-response (Figure2f), replicate values",hCB1 [1]; M] -9,33.486 and 46.5508 and 80.4827 and 77.993 and 76.9862
same,"normalised cAMP response, concentration-response (Figure2f), replicate values",hCB1 [1]; M] -10,57.5574 and 85.1374 and 96.2204 and 101.985 and 96.4953
same,"normalised cAMP response, concentration-response (Figure2f), replicate values",hCB1 [1]; M] -11,67.5707 and 85.3574 and 95.6722 and 97.0187 and 98.6477
same,"normalised cAMP response, concentration-response (Figure2f), replicate values",hCB1 [1]; M] -12,65.6738 and 93.8429 and 115.239 and 106.805 and 95.2537
same,"fold more relatively efficacious than CP-55,940","hCB1 [2]; CB1R, Gi/o and G13 subtypes",approximately 2 fold
same,Barr2+GRK2 hCB1,hCB1 [2]; Log [Compound] (M) -4.22186,125.5* and 120.6* and 91.27*
same,G13 hCB1,hCB1 [2]; Log [Compound] (M) -4.22186,69.1809 and 43.3855
same,G15 hCB1,hCB1 [2]; Log [Compound] (M) -4.22186,108.417 and 97.817
same,Gi1 hCB1,hCB1 [2]; Log [Compound] (M) -4.22186,103.518 and 79.8531 and 99.2855
same,Gi2 hCB1,hCB1 [2]; Log [Compound] (M) -4.22186,106.254 and 114.578
same,GoB hCB1,hCB1 [2]; Log [Compound] (M) -4.22186,102.685 and 99.7877 and 104.661
same,Gq hCB1,hCB1 [2]; Log [Compound] (M) -4.22186,1156
same,Gs hCB1,hCB1 [2]; Log [Compound] (M) -4.22186,6234
same,Gz hCB1,hCB1 [2]; Log [Compound] (M) -4.22186,98.9486
same,Barr2+GRK2 hCB1,hCB1 [2]; Log [Compound] (M) -4.63927,67.7543 and 59.6502 and 97.3886
same,G15 hCB1,hCB1 [2]; Log [Compound] (M) -4.63927,104.285 and 89.1373
same,Gi1 hCB1,hCB1 [2]; Log [Compound] (M) -4.63927,100.256 and 80.2965 and 97.3658
same,Gi2 hCB1,hCB1 [2]; Log [Compound] (M) -4.63927,112.478 and 82.217
same,GoB hCB1,hCB1 [2]; Log [Compound] (M) -4.63927,94.4304 and 95.2911 and 109.92
same,Gq hCB1,hCB1 [2]; Log [Compound] (M) -4.63927,1096
same,Gs hCB1,hCB1 [2]; Log [Compound] (M) -4.63927,6120
same,Gz hCB1,hCB1 [2]; Log [Compound] (M) -4.63927,94.4339
same,G15 hCB1,hCB1 [2]; Log [Compound] (M) -5.05788,99.6047 and 93.8454
same,Gi1 hCB1,hCB1 [2]; Log [Compound] (M) -5.05788,101.042 and 84.715 and 96.0704
same,Gi2 hCB1,hCB1 [2]; Log [Compound] (M) -5.05788,100.013 and 77.0501
same,GoB hCB1,hCB1 [2]; Log [Compound] (M) -5.05788,90.3283 and 96.4543
same,Gq hCB1,hCB1 [2]; Log [Compound] (M) -5.05788,1019
same,Gs hCB1,hCB1 [2]; Log [Compound] (M) -5.05788,6223
same,Gz hCB1,hCB1 [2]; Log [Compound] (M) -5.05788,91.6266
same,G15 hCB1,hCB1 [2]; Log [Compound] (M) -5.47381,92.6315 and 93.0563
same,Gi1 hCB1,hCB1 [2]; Log [Compound] (M) -5.47381,98.0616 and 86.5046 and 101.002
same,Gi2 hCB1,hCB1 [2]; Log [Compound] (M) -5.47381,109.888 and 85.6163
same,GoB hCB1,hCB1 [2]; Log [Compound] (M) -5.47381,95.0781 and 98.6071
same,Gq hCB1,hCB1 [2]; Log [Compound] (M) -5.47381,1081
same,Gs hCB1,hCB1 [2]; Log [Compound] (M) -5.47381,6070
same,Gz hCB1,hCB1 [2]; Log [Compound] (M) -5.47381,90.4534
same,Barr2+GRK2 hCB1,hCB1 [2]; Log [Compound] (M) -5.89285,49.9477 and 47.2064 and 86.5049
same,G15 hCB1,hCB1 [2]; Log [Compound] (M) -5.89285,99.748 and 91.636
same,Gi1 hCB1,hCB1 [2]; Log [Compound] (M) -5.89285,97.1719 and 80.8667 and 101.065
same,Gi2 hCB1,hCB1 [2]; Log [Compound] (M) -5.89285,102.458 and 76.0168
same,GoB hCB1,hCB1 [2]; Log [Compound] (M) -5.89285,92.8683 and 94.9439 and 107.071
same,Gq hCB1,hCB1 [2]; Log [Compound] (M) -5.89285,1042
same,Gs hCB1,hCB1 [2]; Log [Compound] (M) -5.89285,6370
same,Gz hCB1,hCB1 [2]; Log [Compound] (M) -5.89285,91.8989
same,G15 hCB1,hCB1 [2]; Log [Compound] (M) -6.31878,101.969 and 92.5566
same,Gi1 hCB1,hCB1 [2]; Log [Compound] (M) -6.31878,107.685 and 74.7378 and 104.951
same,Gi2 hCB1,hCB1 [2]; Log [Compound] (M) -6.31878,103.614 and 79.7423
same,GoB hCB1,hCB1 [2]; Log [Compound] (M) -6.31878,90.0362 and 98.2252 and 101.933
same,Gq hCB1,hCB1 [2]; Log [Compound] (M) -6.31878,1039
same,Gs hCB1,hCB1 [2]; Log [Compound] (M) -6.31878,6417
same,Gz hCB1,hCB1 [2]; Log [Compound] (M) -6.31878,93.1455
same,G15 hCB1,hCB1 [2]; Log [Compound] (M) -6.72585,105.885 and 89.0321
same,Gi1 hCB1,hCB1 [2]; Log [Compound] (M) -6.72585,94.74 and 76.8441 and 99.3323
same,Gi2 hCB1,hCB1 [2]; Log [Compound] (M) -6.72585,103.093 and 82.0131
same,GoB hCB1,hCB1 [2]; Log [Compound] (M) -6.72585,94.0367 and 93.8848 and 98.7347
same,Gq hCB1,hCB1 [2]; Log [Compound] (M) -6.72585,1115
same,Gs hCB1,hCB1 [2]; Log [Compound] (M) -6.72585,6298
same,Gz hCB1,hCB1 [2]; Log [Compound] (M) -6.72585,84.3779
same,G15 hCB1,hCB1 [2]; Log [Compound] (M) -7.14267,103.856 and 93.4508
same,Gi1 hCB1,hCB1 [2]; Log [Compound] (M) -7.14267,91.7446 and 70.6519 and 99.504
same,Gi2 hCB1,hCB1 [2]; Log [Compound] (M) -7.14267,99.8505 and 80.4086
same,GoB hCB1,hCB1 [2]; Log [Compound] (M) -7.14267,91.8523 and 88.9368 and 103.009
same,Gq hCB1,hCB1 [2]; Log [Compound] (M) -7.14267,1002
same,Gs hCB1,hCB1 [2]; Log [Compound] (M) -7.14267,6288
same,Gz hCB1,hCB1 [2]; Log [Compound] (M) -7.14267,87.489 and 99.2286
same,Barr2+GRK2 hCB1,hCB1 [2]; Log [Compound] (M) -7.55284,47.1448 and 43.6966 and 56.3415
same,G15 hCB1,hCB1 [2]; Log [Compound] (M) -7.55284,99.9152 and 95.5813
same,Gi1 hCB1,hCB1 [2]; Log [Compound] (M) -7.55284,97.765 and 74.1201 and 97.5531
same,Gi2 hCB1,hCB1 [2]; Log [Compound] (M) -7.55284,96.1681 and 79.7288
same,GoB hCB1,hCB1 [2]; Log [Compound] (M) -7.55284,92.1444 and 89.4924 and 88.6102
same,Gq hCB1,hCB1 [2]; Log [Compound] (M) -7.55284,1106
same,Gs hCB1,hCB1 [2]; Log [Compound] (M) -7.55284,6295
same,Gz hCB1,hCB1 [2]; Log [Compound] (M) -7.55284,88.7355 and 97.954
same,G13 hCB1,hCB1 [2]; Log [Compound] (M) -8,59.5674 and 29.7847
same,G15 hCB1,hCB1 [2]; Log [Compound] (M) -8,98.7928 and 95.555
same,Gi1 hCB1,hCB1 [2]; Log [Compound] (M) -8,85.5759 and 80.7558 and 94.7595
same,Gi2 hCB1,hCB1 [2]; Log [Compound] (M) -8,103.924 and 86.4729
same,GoB hCB1,hCB1 [2]; Log [Compound] (M) -8,93.1096 and 93.0515 and 90.8837
same,Gq hCB1,hCB1 [2]; Log [Compound] (M) -8,998
same,Gs hCB1,hCB1 [2]; Log [Compound] (M) -8,6325
same,Gz hCB1,hCB1 [2]; Log [Compound] (M) -8,81.7172 and 92.9121
same,Barr2+GRK2 hCB1,hCB1 [2]; Log [Compound] (M) -8.22186,55.5534 and 36.0388 and 57.0671
same,G13 hCB1,hCB1 [2]; Log [Compound] (M) -8.22186,68.4414 and 35.9312
